Reference: ChEMBL document CHEMBL5620423, “Highly-tumor-targeted PAD4 inhibitors with PBA modification inhibit tumors in vivo by specifically inhibiting the PAD4-H3cit-NETs pathway in neutrophils” (Eur J Med Chem, 2023)
pIC50: −log10 of the molar value. The source made the active and inactive calls. The rule behind the calls is not given here.

Columns and labels:
[1] = system: 4T1; test: Anti-metastatic activity against mouse 4T1 cells xenografted in BALB/c mouse assessed as reduction in number of lung metastatic tumor nodules at 5 to 10 umol/kg, iv for 21 days; assay type: functional, organism-based; conditions: dose 5-10 µmol/kg, time 21.0 day
[2] = system: 4T1; test: Induction of cell morphological changes in mouse 4T1 cells assessed as rounded tumor cells at 50 uM measured after 48 hrs by scanning electron microscopy; assay type: functional, cell-based
[3] = system: Mus musculus; test: Immunomodulatory activity in iv dosed BALB/c mouse xenografted with mouse 4T1 cells assessed as increase in normal neutrophils in tumor tissues administered for 21 days by CyTOF analysis; assay type: functional, organism-based; conditions: time 21.0 day
[4] = system: Sarcoma-180; test: Antitumor activity against Sarcoma-180 mouse model assessed as inhibition of tumor growth at 10 umol/kg; assay type: functional
[5] = Toxicity in BALB/c mouse xenografted with mouse 4T1 cells assessed as spleen morphological changes at 10 umol/kg, iv for 21 days by Hematoxylin-Eosin staining based analysis; assay type: organism-based; conditions: in vivo, 504 h, dose 10 µmol/kg, time 21 day
[6] = system: 4T1; test: Induction of cell morphological changes in mouse 4T1 cells assessed as increase in number of cells with shrank mitochondria measured after 48 hrs by transmission electron microscopy; assay type: functional, cell-based
[7] = Hepatotoxicity in BALB/c mouse xenografted with mouse 4T1 cells assessed as serum ALT level at 2 to 10 umol/kg, iv for 21 days; assay type: toxicity, organism-based; conditions: in vivo, 504 h, dose 2-10 µmol/kg, time 21 day
[8] = biological target: Protein-arginine deiminase type-4 (Mus musculus) (UniProt Q9Z183); test: Inhibition of PAD4 in mouse bone marrow neutrophils assessed as reduction in citrullinated histone level at 100 uM measured after 48 hrs by Hoechst33342 staining based confocal laser scanning microscopy; assay type: cell-based; conditions: Neutrophil
[9] = system: Mus musculus; test: Immunomodulatory activity in iv dosed BALB/c mouse xenografted with mouse 4T1 cells assessed as macrophage polarization by measuring increase in proportion of M1 macrophages administered for 21 days by CyTOF analysis; assay type: functional, organism-based; conditions: time 21.0 day
[10] = system: Sarcoma-180; test: Antitumor activity against Sarcoma-180 mouse model assessed as tumor weight at 10 umol/kg (reference value: 1.65 +/-0.2 gms); assay type: functional; conditions: dose 10 µmol/kg
[11] = Toxicity in BALB/c mouse xenografted with mouse 4T1 cells assessed as heart morphological changes at 10 umol/kg, iv for 21 days by Hematoxylin-Eosin staining based analysis; assay type: organism-based; conditions: in vivo, 504 h, dose 10 µmol/kg, time 21 day
[12] = system: 4T1; test: Anti-metastatic activity against mouse 4T1 cells assessed as reduction in neutrophil extranuclear traps formation by measuring decrease in Ly6G-labeled neutrophils in tumor at 10 umol/kg, iv for 21 days by immunofluorescence analysis; assay type: functional, organism-based; conditions: dose 10.0 µmol/kg, time 21.0 day
[13] = system: 4T1; test: Anti-metastatic activity against mouse 4T1 cells assessed as reduction in tumor cell lesions in lungs at 5 umol/kg, iv for 21 days by Hematoxylin-Eosin staining; assay type: functional, organism-based; conditions: dose 5.0 µmol/kg, time 21.0 day
[14] = Drug uptake in mouse 4T1 cells assessed as layer of green fluorescence around the cell membrane at 50 uM measured after 48 hrs by Hoechst33342 staining based confocal laser microscopy; assay type: ADME; conditions: 4t1, 48 h
[15] = system: 4T1; test: Anti-metastatic activity against mouse 4T1 cells assessed as reduction in inflammatory cell infiltration in lungs at 5 umol/kg, iv for 21 days by Hematoxylin-Eosin staining; assay type: functional, organism-based; conditions: dose 5.0 µmol/kg, time 21.0 day
[16] = system: L02; test: Cytotoxicity against human HL7702 cells assessed as effect on cell viability at 3.125 to 100 uM measured after 48 hrs by MTT assay; assay type: toxicity, cell-based; conditions: l02, 48 h, dose 3.125-100 µM
[17] = Toxicity in BALB/c mouse xenografted with mouse 4T1 cells assessed as decrease in body weight at 2 to 10 umol/kg, iv measured after 9 to 15 days; assay type: organism-based; conditions: in vivo, dose lower 2 µmol/kg, time lower 9 day, dose upper 10 µmol/kg, time upper 15 day
[18] = system: 4T1; test: Cytotoxicity against mouse 4T1 cells assessed as reduction in cell viability measured after 48 hrs by MTT assay; conditions: 4T1, 48 h
[19] = biological target: Protein-arginine deiminase type-4 (Mus musculus) (UniProt Q9Z183); test: Inhibition of PAD4 in mouse bone marrow neutrophils assessed as reduction in H3 cit expression by measuring red filamentous histone structure at 50 uM measured after 48 hrs by Hoechst33342 staining based confocal laser scanning microscopy; assay type: cell-based; conditions: Neutrophil
[20] = system: 4T1; test: Antitumor activity against mouse 4T1 cells xenografted in BALB/c mouse assessed as reduction in tumor volume at 2 to 10 umol/kg, iv for 21 days; assay type: functional, organism-based; conditions: dose 2-10 µmol/kg, time 21.0 day
[21] = system: 4T1; test: Cytotoxicity against mouse 4T1 cells assessed as effect on cell viability at 3.125 to 100 uM measured after 48 hrs by MTT assay; assay type: functional, cell-based; conditions: dose 3.125-100 µM
[22] = Nephrotoxicity in BALB/c mouse xenografted with mouse 4T1 cells assessed as serum BUN level at 2 to 10 umol/kg, iv for 21 days; assay type: toxicity, organism-based; conditions: in vivo, 504 h, dose 2-10 µmol/kg, time 21 day
[23] = system: 4T1; test: Antitumor activity against mouse 4T1 cells xenografted in BALB/c mouse assessed as reduction in tumor weight at 10 umol/kg, iv for 21 days; assay type: functional, organism-based; conditions: dose 10.0 µmol/kg, time 21.0 day
[24] = Hepatotoxicity in BALB/c mouse xenografted with mouse 4T1 cells assessed as serum AST level at 2 to 10 umol/kg, iv for 21 days; assay type: toxicity, organism-based; conditions: in vivo, 504 h, dose 2-10 µmol/kg, time 21 day
[25] = system: 4T1; test: Anti-metastatic activity against mouse 4T1 cells assessed as reduction in neutrophil extranuclear traps formation by measuring decrease in H3cit positivity in tumor at 10 umol/kg, iv for 21 days by immunofluorescence analysis; assay type: functional, organism-based; conditions: dose 10.0 µmol/kg, time 21.0 day
[26] = Drug uptake in mouse bone marrow neutrophils assessed as drug localization in nucleus at 50 uM measured after 48 hrs by Hoechst33342 staining based confocal laser scanning microscopy; assay type: ADME, cell-based; conditions: neutrophil
[27] = Drug uptake in mouse 4T1 cells assessed as increase in green fluorescence intensity at 50 uM measured for 24 hrs flow cytometry; assay type: ADME, cell-based; conditions: 4t1, 24 h
[28] = system: Mus musculus; test: Immunomodulatory activity in iv dosed BALB/c mouse xenografted with mouse 4T1 cells assessed as macrophage polarization by measuring proportion of M2 macrophages administered for 21 days by CyTOF analysis; assay type: functional, organism-based; conditions: time 21.0 day
[29] = biological target: Protein-arginine deiminase type-4 (Mus musculus) (UniProt Q9Z183); test: Inhibition of PAD4 in mouse 4T1 cells assessed as reduction in citrullinated histone level at 100 uM measured after 48 hrs by Hoechst33342 staining based confocal laser scanning microscopy; assay type: cell-based
[30] = Nephrotoxicity in BALB/c mouse xenografted with mouse 4T1 cells assessed as serum creatinine level at 2 to 10 umol/kg, iv for 21 days; assay type: toxicity, organism-based; conditions: in vivo, 504 h, dose 2-10 µmol/kg, time 21 day
[31] = system: 4T1; test: Induction of cell morphological changes in mouse 4T1 cells assessed as reduction in pseudopodia on cell surface at 50 uM measured after 48 hrs by scanning electron microscopy; assay type: functional, cell-based
[32] = system: Lewis lung carcinoma; test: Cytotoxicity against mouse Lewis lung carcinoma cells assessed as effect on cell viability at 3.125 to 100 uM measured after 48 hrs by MTT assay; assay type: functional, cell-based; conditions: dose 3.125-100 µM
[33] = system: Mus musculus; test: Immunomodulatory activity in iv dosed BALB/c mouse xenografted with mouse 4T1 cells assessed as decrease in proportion of aged neutrophils (CD194hi|CD62Llo) in tumor tissues administered for 21 days by CyTOF analysis; assay type: functional, organism-based; conditions: time 21.0 day
[34] = Toxicity in BALB/c mouse xenografted with mouse 4T1 cells assessed as liver morphological changes at 10 umol/kg, iv for 21 days by Hematoxylin-Eosin staining based analysis; assay type: organism-based; conditions: in vivo, 504 h, dose 10 µmol/kg, time 21 day
[35] = system: 4T1; test: Anti-metastatic activity against mouse 4T1 cells assessed as reduction in tumor cell lesions in lungs at 10 umol/kg, iv for 21 days by Hematoxylin-Eosin staining; assay type: functional, organism-based; conditions: dose 10.0 µmol/kg, time 21.0 day
[36] = Toxicity in BALB/c mouse xenografted with mouse 4T1 cells assessed as kidney morphological changes at 10 umol/kg, iv for 21 days by Hematoxylin-Eosin staining based analysis; assay type: organism-based; conditions: in vivo, 504 h, dose 10 µmol/kg, time 21 day
[37] = system: 4T1; test: Anti-metastatic activity against mouse 4T1 cells assessed as reduction in tumor cell lesions in lungs at 2 umol/kg, iv for 21 days by Hematoxylin-Eosin staining; assay type: functional, organism-based; conditions: dose 2.0 µmol/kg, time 21.0 day
[38] = Drug uptake in human HL7702 cells assessed as green fluorescence intensity at 50 uM measured after 48 hrs by Hoechst33342 staining based confocal laser microscopy; assay type: ADME, cell-based; conditions: l02, 48 h
[39] = Drug uptake in mouse 4T1 cells assessed as drug localization in cytoplasm at 50 uM measured after 48 hrs by Hoechst33342 staining based confocal laser scanning microscopy; assay type: ADME, cell-based; conditions: 4t1, 48 h

Chain of Protein-arginine deiminase type-4 (Mus musculus) (Q9Z183 whole entry): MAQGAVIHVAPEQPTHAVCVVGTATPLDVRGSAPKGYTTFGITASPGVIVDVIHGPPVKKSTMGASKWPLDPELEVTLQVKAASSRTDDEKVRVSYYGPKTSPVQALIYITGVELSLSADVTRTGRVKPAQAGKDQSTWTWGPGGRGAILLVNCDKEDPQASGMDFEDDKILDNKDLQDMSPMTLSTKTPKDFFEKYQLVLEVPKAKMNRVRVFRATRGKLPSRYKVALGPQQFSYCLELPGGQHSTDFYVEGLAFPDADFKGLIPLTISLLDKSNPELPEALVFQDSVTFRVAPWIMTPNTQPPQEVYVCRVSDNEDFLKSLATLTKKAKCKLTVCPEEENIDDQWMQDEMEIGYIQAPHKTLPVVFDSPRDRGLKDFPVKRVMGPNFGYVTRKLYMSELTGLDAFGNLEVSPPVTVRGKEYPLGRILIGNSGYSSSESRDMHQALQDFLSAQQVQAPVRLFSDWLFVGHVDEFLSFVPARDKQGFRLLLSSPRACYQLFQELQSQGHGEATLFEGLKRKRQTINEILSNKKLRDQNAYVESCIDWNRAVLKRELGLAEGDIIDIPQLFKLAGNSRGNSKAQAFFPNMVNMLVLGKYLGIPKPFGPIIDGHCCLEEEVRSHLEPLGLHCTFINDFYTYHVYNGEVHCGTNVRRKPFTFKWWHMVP

Q: For N=C(CCl)NCCC[C@H](NC(=O)c1cc([N+](=O)[O-])c2nonc2c1)C(=O)NCc1cccc(B(O)O)c1, which Activity [1] is on record?
A: The Activity was “Active”.

Q: What about the Activity [2] of the same compound?
A: The Activity was “Active”.

Q: What about the Activity [3] of the same compound?
A: Its Activity is “Active”.

Q: And the inhibition in vivo at 10 µmol/kg [4]?
A: The inhibition in vivo at 10 µmol/kg was 49.2%.

Q: What about the Activity [5] of the same compound?
A: Its Activity is “Non-Toxic”.

Q: What about the Activity [6] of the same compound?
A: Its Activity is “Active”.

Q: What about the Activity [7] of the same compound?
A: Its Activity is “Non-Toxic”.

Q: What about the inhibition [8] of the same compound?
A: Its inhibition is “Active”.

Q: What about the Activity [9] of the same compound?
A: The Activity was “Active”.

Q: What about the Activity [10] of the same compound?
A: The Activity was 0.84 g.

Q: What about the Activity [11] of the same compound?
A: Its Activity is “Non-Toxic”.

Q: What about the Activity [12] of the same compound?
A: Its Activity is “Active”.

Q: And the Activity [13]?
A: The Activity was “Active”.

Q: What about the Drug uptake [14] of the same compound?
A: The Drug uptake was “Active”.

Q: What about the Activity [15] of the same compound?
A: Its Activity is “inactive”.

Q: And the Activity [16]?
A: The Activity was “Non-Toxic”.

Q: And the Activity [17]?
A: The Activity was “Non-Toxic”.

Q: What about the pIC50 [18] of the same compound?
A: The pIC50 was < 4.00.

Q: What about the inhibition [19] of the same compound?
A: The inhibition was “Active”.

Q: And the Activity [20]?
A: The Activity was “Active”.

Q: What about the Activity [21] of the same compound?
A: Its Activity is “inactive”.

Q: What about the Activity [22] of the same compound?
A: Its Activity is “Non-Toxic”.

Q: What about the Activity [23] of the same compound?
A: Its Activity is “Active”.

Q: And the Activity [24]?
A: The Activity was “Non-Toxic”.

Q: And the Activity [25]?
A: Its Activity is “Active”.

Q: What about the Drug uptake [26] of the same compound?
A: The Drug uptake was “Active”.

Q: What about the Drug uptake [27] of the same compound?
A: Its Drug uptake is “Active”.

Q: What about the Activity [28] of the same compound?
A: The Activity was “inactive”.

Q: And the inhibition [29]?
A: The inhibition was “Active”.

Q: And the Activity [30]?
A: Its Activity is “Non-Toxic”.

Q: And the Activity [31]?
A: The Activity was “Active”.

Q: And the Activity [32]?
A: Its Activity is “inactive”.

Q: And the Activity [33]?
A: The Activity was “Active”.

Q: What about the Activity [34] of the same compound?
A: The Activity was “Non-Toxic”.

Q: What about the Activity [35] of the same compound?
A: The Activity was “Active”.

Q: And the Activity [36]?
A: The Activity was “Non-Toxic”.

Q: And the Activity [37]?
A: The Activity was “inactive”.

Q: What about the Drug uptake [38] of the same compound?
A: The Drug uptake was “Not Active”.

Q: What about the Drug uptake [39] of the same compound?
A: The Drug uptake was “Active”.
